Converted amounts (≈) assume the structure as drawn.
Key:
Test in all cases: in vitro antibacterial evaluation, MIC by broth dilution
Format in all cases: cell-based
Escherichia coli = settings: 18 hours at 35° C.
Enterococcus sp. = settings: broth dilution, 18 hours at 35° C.
Summary of the method: (§1)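 MIC = lowest antibiotic concentration preventing visible growth; inoculum 5×10^5 CFU/mL; drug range 64-0.06 μg/mL; Muller-Hinton II […]; NCCLS M7-A2 guidance.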

Staphylococcus sp. = settings: broth dilution, 18 hours at 35° C.
Summary of the method: as §1

Streptococcus sp. = settings: broth dilution, 18 hours at 35° C.
Summary of the method: as §1

- MIC Escherichia coli (ATCC 25922) (Escherichia coli): >64 µg/mL
- MIC Escherichia coli (GC 4559) (Escherichia coli): >64 µg/mL
- MIC Escherichia coli (GC 4560) (Escherichia coli): 4 µg/mL (≈ 2.84 µM)
- MIC Enterococcus avium (GC 4558) (Enterococcus sp.): >64 µg/mL
- MIC Enterococcus faecalis (ATCC 29212) (Enterococcus sp.): >64 µg/mL
- MIC Enterococcus faecalis (GC 2242) (Enterococcus sp.): >64 µg/mL
- MIC Enterococcus faecalis (GC 4552) (Enterococcus sp.): >64 µg/mL
- MIC Enterococcus faecalis (GC 4553) (Enterococcus sp.): >64 µg/mL
- MIC Enterococcus faecalis (GC 4554) (Enterococcus sp.): >64 µg/mL
- MIC Enterococcus faecium (GC 2243) (Enterococcus sp.): >64 µg/mL
- MIC Enterococcus faecium (GC 4556) (Enterococcus sp.): >64 µg/mL
- MIC Enterococcus faecium (GC 4557) (Enterococcus sp.): 64 µg/mL (≈ 45.4 µM)
- MIC Enterococcus faecalis (ATCC 29212) (Enterococcus sp.; strain ATCC 29212): >64 µg/mL
- MIC Enterococcus faecalis (GC 2242) (Enterococcus sp.; strain GC 2242): >64 µg/mL
- MIC Enterococcus faecium (GC 2243) (Enterococcus sp.; strain GC 2243): >64 µg/mL
- MIC Enterococcus faecalis (GC 4552) (Enterococcus sp.; strain GC 4552): >64 µg/mL
- MIC Enterococcus faecalis (GC 4553) (Enterococcus sp.; strain GC 4553): >64 µg/mL
- MIC Enterococcus faecalis (GC 4554) (Enterococcus sp.; strain GC 4554): >64 µg/mL
- MIC Enterococcus faecium (GC 4556) (Enterococcus sp.; strain GC 4556): >64 µg/mL
- MIC Enterococcus faecium (GC 4557) (Enterococcus sp.; strain GC 4557): 64 µg/mL (≈ 45.4 µM)
- MIC Enterococcus avium (GC 4558) (Enterococcus sp.; strain GC 4558): >64 µg/mL
- MIC Coagulase Negative Staphylococcus (GC 4547) (Staphylococcus sp.): >64 µg/mL
- MIC Coagulase Negative Staphylococcus (GC 4548) (Staphylococcus sp.): >64 µg/mL
- MIC Coagulase Negative Staphylococcus (GC 4549) (Staphylococcus sp.): >64 µg/mL
- MIC Coagulase Negative Staphylococcus (GC 4551) (Staphylococcus sp.): >64 µg/mL
- MIC Coagulase Negative Staphylococcus (ID-3941) (Staphylococcus sp.): 64 µg/mL (≈ 45.4 µM)
- MIC Staphylococcus aureus (ATCC 29213) (Staphylococcus sp.): >64 µg/mL
- MIC Staphylococcus aureus (GC 1131) (Staphylococcus sp.): >64 µg/mL
- MIC Staphylococcus aureus (GC 4541) (Staphylococcus sp.): >64 µg/mL
- MIC Staphylococcus aureus (GC 4542) (Staphylococcus sp.): >64 µg/mL
- MIC Staphylococcus aureus (GC 4544) (Staphylococcus sp.): >64 µg/mL
- MIC Staphylococcus aureus (GC 4545) (Staphylococcus sp.): >64 µg/mL
- MIC Staphylococcus aureus-SMITH (GC 4543) (Staphylococcus sp.): >64 µg/mL
- MIC Staphylococcus aureus (ATCC 29213) (Staphylococcus sp.; strain ATCC 29213): >64 µg/mL
- MIC Staphylococcus aureus (GC 1131) (Staphylococcus sp.; strain GC 1131): >64 µg/mL
- MIC Staphylococcus aureus (GC 4541) (Staphylococcus sp.; strain GC 4541): >64 µg/mL
- MIC Staphylococcus aureus (GC 4542) (Staphylococcus sp.; strain GC 4542): >64 µg/mL
- MIC Staphylococcus aureus-SMITH (GC 4543) (Staphylococcus sp.; strain GC 4543): >64 µg/mL
- MIC Staphylococcus aureus (GC 4544) (Staphylococcus sp.; strain GC 4544): >64 µg/mL
- MIC Staphylococcus aureus (GC 4545) (Staphylococcus sp.; strain GC 4545): >64 µg/mL
- MIC Coagulase Negative Staphylococcus (GC 4547) (Staphylococcus sp.; strain GC 4547): >64 µg/mL
- MIC Coagulase Negative Staphylococcus (GC 4548) (Staphylococcus sp.; strain GC 4548): >64 µg/mL
- MIC Coagulase Negative Staphylococcus (GC 4549) (Staphylococcus sp.; strain GC 4549): >64 µg/mL
- MIC Coagulase Negative Staphylococcus (GC 4551) (Staphylococcus sp.; strain GC 4551): >64 µg/mL
- MIC Coagulase Negative Staphylococcus (ID-3941) (Staphylococcus sp.; strain ID-3941): 64 µg/mL (≈ 45.4 µM)
- MIC Streptococcus agalactiae (GC 4564) (Streptococcus sp.): >64 µg/mL
- MIC Streptococcus pneumoniae (GC 4565) (Streptococcus sp.): 64 µg/mL (≈ 45.4 µM)
- MIC Streptococcus pyogenes (ID-3187) (Streptococcus sp.): 64 µg/mL (≈ 45.4 µM)
- MIC Streptococcus agalactiae (GC 4564) (Streptococcus sp.; strain GC 4564): >64 µg/mL
- MIC Streptococcus pneumoniae (GC 4565) (Streptococcus sp.; strain GC 4565): 64 µg/mL (≈ 45.4 µM)
- MIC Streptococcus pyogenes (ID-3187) (Streptococcus sp.; strain ID-3187): 64 µg/mL (≈ 45.4 µM)
Compound: CCCCCNC(=O)OC1C(CO)OC(OC2C(CO)OC(Oc3ccc(CC4NC(=O)C(C(C)c5ccccc5)NC(=O)CNC(=O)C(CO)NC(=O)C(C(O)C5CNC(=N)N5C5OC(CO)C(O)C(O)C5O)NC(=O)C(C(O)C5CNC(=N)N5)NC4=O)cc3)C(O)C2O)C(O)C1O (centres unmarked) [Example 251]
- MIC Staphylococcus haemolyticus (GC 4546) (Staphylococcus sp.): >64 µg/mL
- MIC Staphylococcus haemolyticus (GC 4546) (Staphylococcus sp.; strain GC 4546): >64 µg/mL
